IC50 data for twelve molecules are collected here from US20230148214A1, “INDAZOLES AND AZAINDAZOLES AS LRRK2 INHIBITORS” (ESCAPE Bio, Inc., priority 2020, published 2023).

pIC50: −log10 of the molar value.

The target in the test is T1, LRRK2 WT (Homo sapiens, UniProt Q5S007).
T1 construct: purchased Life Technologies PR8604B
Briefly: LRRK2 Kinase Activity Assay (LanthaScreen TR-FRET), wild type. It counts as biochemical. The conditions noted are these: recombinant wild type LRRK2, 25 μM ATP, 400 nM LRRKtide, 60 min; class symbols. On the procedure: LRRK2 kinase activity was measured using a LanthaScreen™ Kinase Activity Assay from ThermoFisher Scientific. Recombinant wild type or G2019S-LRRK2 protein (Life Technologies, PR8604B or PV4881, respectively), was incubated with a fluorescein-labeled peptide substrate called LRRKtide that is based upon ezrin/radixin/moesin (ERM) (Life Technologies, PV4901) in the presence of ATP and serially diluted compound. […] Compound-dependent inhibition of the TR-FRET signal was used to generate a concentration-response curve for IC50 determination.
After 60 min incubation at room temperature, the reaction was stopped by addition of 10 μL of 2×stop solution containing a final concentration of 2 nM anti-pERM antibody and 10 mM EDTA.

T1 sequence (Q5S007 whole entry): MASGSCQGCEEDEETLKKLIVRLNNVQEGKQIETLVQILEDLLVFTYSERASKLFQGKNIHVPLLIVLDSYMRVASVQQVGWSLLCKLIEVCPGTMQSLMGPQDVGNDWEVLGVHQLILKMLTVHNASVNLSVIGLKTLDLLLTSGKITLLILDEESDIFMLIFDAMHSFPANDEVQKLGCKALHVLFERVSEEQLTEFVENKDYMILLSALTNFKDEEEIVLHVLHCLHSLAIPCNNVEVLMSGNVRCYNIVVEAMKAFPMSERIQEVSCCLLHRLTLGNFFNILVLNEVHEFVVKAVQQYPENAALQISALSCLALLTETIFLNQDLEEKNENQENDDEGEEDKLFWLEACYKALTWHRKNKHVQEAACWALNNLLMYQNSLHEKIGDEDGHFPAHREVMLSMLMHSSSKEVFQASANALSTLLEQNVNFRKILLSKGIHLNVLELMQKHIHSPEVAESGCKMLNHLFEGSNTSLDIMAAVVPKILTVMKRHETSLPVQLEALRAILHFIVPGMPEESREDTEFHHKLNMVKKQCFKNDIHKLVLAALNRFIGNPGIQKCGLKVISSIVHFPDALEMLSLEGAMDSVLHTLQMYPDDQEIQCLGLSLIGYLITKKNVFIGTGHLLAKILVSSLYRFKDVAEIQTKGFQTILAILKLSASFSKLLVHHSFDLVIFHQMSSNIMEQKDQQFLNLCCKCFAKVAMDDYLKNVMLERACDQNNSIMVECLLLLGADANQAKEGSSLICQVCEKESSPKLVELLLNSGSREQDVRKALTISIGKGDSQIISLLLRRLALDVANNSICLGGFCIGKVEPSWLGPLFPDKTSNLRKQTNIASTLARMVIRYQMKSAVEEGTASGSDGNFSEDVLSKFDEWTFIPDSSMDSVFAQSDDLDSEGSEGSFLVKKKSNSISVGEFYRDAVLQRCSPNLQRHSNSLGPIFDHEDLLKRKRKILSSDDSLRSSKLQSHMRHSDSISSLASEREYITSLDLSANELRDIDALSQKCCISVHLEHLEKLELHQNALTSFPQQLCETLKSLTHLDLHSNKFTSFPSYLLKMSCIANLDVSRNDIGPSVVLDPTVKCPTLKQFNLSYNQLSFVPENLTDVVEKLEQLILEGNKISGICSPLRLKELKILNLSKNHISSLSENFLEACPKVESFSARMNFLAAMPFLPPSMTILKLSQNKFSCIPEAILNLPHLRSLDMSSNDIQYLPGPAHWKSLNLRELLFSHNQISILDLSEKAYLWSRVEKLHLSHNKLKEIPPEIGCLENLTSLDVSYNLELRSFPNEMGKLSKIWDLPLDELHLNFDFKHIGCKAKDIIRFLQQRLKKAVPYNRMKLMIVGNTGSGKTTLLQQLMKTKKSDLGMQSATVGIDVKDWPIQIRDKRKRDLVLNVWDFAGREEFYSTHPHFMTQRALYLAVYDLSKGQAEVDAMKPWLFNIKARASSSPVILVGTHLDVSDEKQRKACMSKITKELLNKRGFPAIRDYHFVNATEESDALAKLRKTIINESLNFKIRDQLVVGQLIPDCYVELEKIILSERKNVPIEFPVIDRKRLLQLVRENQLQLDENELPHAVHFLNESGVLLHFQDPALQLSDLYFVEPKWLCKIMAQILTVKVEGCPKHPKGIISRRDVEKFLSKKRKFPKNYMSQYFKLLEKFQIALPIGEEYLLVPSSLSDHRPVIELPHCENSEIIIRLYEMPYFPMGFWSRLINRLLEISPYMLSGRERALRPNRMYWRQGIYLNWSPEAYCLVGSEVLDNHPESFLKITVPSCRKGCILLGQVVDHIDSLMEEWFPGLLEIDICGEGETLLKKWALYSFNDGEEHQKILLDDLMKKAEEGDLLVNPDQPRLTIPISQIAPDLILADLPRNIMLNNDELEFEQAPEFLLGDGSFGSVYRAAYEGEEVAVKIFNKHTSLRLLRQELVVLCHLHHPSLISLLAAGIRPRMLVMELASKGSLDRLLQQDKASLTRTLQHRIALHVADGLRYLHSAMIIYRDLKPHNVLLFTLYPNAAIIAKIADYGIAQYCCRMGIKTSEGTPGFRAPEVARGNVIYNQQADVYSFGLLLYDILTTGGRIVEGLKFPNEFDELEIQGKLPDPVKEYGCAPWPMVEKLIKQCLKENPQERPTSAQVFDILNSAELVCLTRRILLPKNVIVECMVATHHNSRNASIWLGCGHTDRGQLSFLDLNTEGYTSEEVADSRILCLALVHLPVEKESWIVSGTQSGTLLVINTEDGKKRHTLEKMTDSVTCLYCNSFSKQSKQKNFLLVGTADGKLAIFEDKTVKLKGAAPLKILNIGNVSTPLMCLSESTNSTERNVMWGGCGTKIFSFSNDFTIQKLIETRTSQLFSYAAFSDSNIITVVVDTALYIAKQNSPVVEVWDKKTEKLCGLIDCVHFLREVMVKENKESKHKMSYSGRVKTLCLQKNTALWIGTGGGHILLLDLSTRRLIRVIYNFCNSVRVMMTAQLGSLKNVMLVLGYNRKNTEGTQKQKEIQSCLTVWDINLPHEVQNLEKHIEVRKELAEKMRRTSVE

As for `N#Cc1cc2c(nc1Cl)[C@@H](Oc1ccc3[nH]nc(-c4cnco4)c3c1)CCC2` (single isomer, unassigned) [177, enantiomer 2, 2-Chloro-8-((3-(oxazol-5-yl)-1H-indazol-5-yl)oxy)-5,6,7,8-tetrahydroquinoline-3-carbonitrile], the pIC50 is greater than 7.00.
As for `N#Cc1cc2c(nc1Cl)[C@@H](Oc1ccc3[nH]nc(-c4cnoc4)c3c1)CCC2` (single isomer, unassigned) [178, enantiomer 2, 2-Chloro-8-[[3-(1,2-oxazol-4-yl)-1H-indazol-5-yl]oxy]-5,6,7,8-tetrahydroquinoline-3-carbonitrile], the negative logarithm of the IC50 (pIC50) is greater than 7.00.
With `N#Cc1cc2c(cc1F)[C@@H](Oc1ccc3[nH]nc(-c4cnco4)c3c1)CCC2` (single isomer, unassigned) [180, enantiomer 2, 3-Fluoro-5-[[3-(1,3-oxazol-5-yl)-1H-indazol-5-yl]oxy]-5,6,7,8-tetrahydronaphthalene-2-carbonitrile] the figure was greater than 7.00.
With `N#Cc1cnc2c(n1)CC[C@@H]2Oc1ccc2[nH]nc(-c3cnco3)c2c1` (single isomer, unassigned) [182, enantiomer 2, 5-((3-(Oxazol-5-yl)-1H-indazol-5-yl)oxy)-6,7-dihydro-5H-cyclopenta[b]pyrazine-2-carbonitrile] the figure was greater than 7.00; with `N#Cc1cnc2c(c1)CCC[C@@H]2Oc1ccc2[nH]nc(-c3cnoc3)c2c1` (single isomer, unassigned) [Example 2, enantiomer 2, 8-((3-(Isoxazol-4-yl)-1H-indazol-5-yl)oxy)-5,6,7,8-tetrahydroquinoline-3-carbonitrile], greater than 7.00; with `N#Cc1ccc2c(c1)CCC2Oc1ccc2[nH]nc(-c3cnco3)c2c1` (single isomer, unassigned) [Example 3, enantiomer 2, 1-((3-(Oxazol-5-yl)-1H-indazol-5-yl)oxy)-2,3-dihydro-1H-indene-5-carbonitrile], greater than 7.00.
In the case of `N#Cc1ccc2c(c1)CC[C@@H]2Oc1ccc2[nH]nc(-c3cnn(C(F)F)c3)c2c1` (single isomer, unassigned) [Example 4, enantiomer 2, 1-((3-(1-(Difluoromethyl)-1H-pyrazol-4-yl)-1H-indazol-5-yl)oxy)-2,3-dihydro-1H-indene-5-carbonitrile] it was greater than 7.00; in that of `N#Cc1ccc2c(c1)CC[C@@H]2Oc1ccc2[nH]nc(-c3cnoc3)c2c1` (single isomer, unassigned) [Example 5, enantiomer 2, 1-((3-(Isoxazol-4-yl)-1H-indazol-5-yl)oxy)-2,3-dihydro-1H-indene-5-carbonitrile], greater than 7.00.
Turning to `N#Cc1ccc2c(c1)CC[C@@H]2Nc1ccc2[nH]nc(-c3cnoc3)c2c1` (single isomer, unassigned) [Example 8, enantiomer 2, 1-((3-(Isoxazol-4-yl)-1H-indazol-5-yl)amino)-2,3-dihydro-1H-indene-5-carbonitrile], the pIC50 was greater than 7.00.
With `N#Cc1ccc2c(c1)CC[C@@H]2Nc1ccc2[nH]nc(-c3cnco3)c2c1` (single isomer, unassigned) [Example 9, enantiomer 2, 1-((3-(Oxazol-5-yl)-1H-indazol-5-yl)amino)-2,3-dihydro-1H-indene-5-carbonitrile] the figure was greater than 7.00; with `N#Cc1ccc2c(c1)CC[C@@H]2Nc1ccc2[nH]nc(-c3ccoc3)c2c1` (single isomer, unassigned) [Example 11, enantiomer 2, 1-((3-(Furan-3-yl)-1H-indazol-5-yl)amino)-2,3-dihydro-1H-indene-5-carbonitrile], greater than 7.00; with `N#Cc1ccc2c(c1)CC[C@@H]2Nc1ccc2[nH]nc(-c3cnn(C(F)F)c3)c2c1` (single isomer, unassigned) [Example 12, enantiomer 2, 1-((3-(1-(Difluoromethyl)-1H-pyrazol-4-yl)-1H-indazol-5-yl)amino)-2,3-dihydro-1H-indene-5-carbonitrile], greater than 7.00.
